Test results as given in patent US20230085307A1, “PYRIDAZINONE COMPOUND AND HERBICIDE” (NISSAN CHEMICAL CORPORATION, priority 2019, published 2023).

The molecules below were run on late watergrass (assay: Test Example 1: herbicidal activity, application before weed generation under submerged conditions (Table 16, symbol A)). Details: amount of applied herbicide 320 g/ha.
Format: in vivo, late watergrass (Echinochloa oryzicola)
Outline: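 Alluvial soil was flooded to 4 cm depth, weed seeds were sown mixed and 2.5-leaf rice seedlings were transplanted. On sowing day, the compound's emulsion, diluted in water to a set dose, was applied to the water surface. Plants grew at 25–30 °C and were scored 0–5 after three weeks.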

SMILES	Herbicidal effect, A: late watergrass
CCCC(=O)Oc1c(C)nn(C)c(=O)c1-c1c(-c2ccc(F)cc2OCC)sc2cc(F)ccc12 [3-012]	5 (Herbicidal rate of 90% or more (almost completely withered))

Each molecule was assayed on oval-leafed pondweed (assay: Test Example 2: herbicidal activity, application during weed generation under submerged conditions (Table 17, symbol C)). Details: AAH 320 g/ha; application during weed generation, submerged conditions.
Format: in vivo, oval-leafed pondweed (Monochoria vaginalis)
Outline: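 Wagner pot, alluvial soil, 4 cm flood; mixed sowing of all species; greenhouse 25° C.–30° C. Emulsifiable formulation, water-diluted to predetermined dose, applied to paddy water at 1–2 leaf stage. Effect rated at 3 wk using the earlier test's scoring criteria.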

SMILES	herbicidal effect rating, C: oval-leafed pondweed
CCCC(=O)Oc1c(C)nn(C)c(=O)c1-c1c(-c2ccc(F)cc2OCC)sc2cc(F)ccc12 [3-012]	4 (Herbicidal rate of 70% or more and less than 90%)

Each molecule was assayed on barnyard grass (assay: Test Example 3: herbicidal effect by foliage application, Wagner pot (Table 18, symbol H)). Details: amount of applied herbicide 320 g/ha.
Format: in vivo, barnyard grass (Echinochloa crus-galli)
Outline: (§1)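 Plants were sown in alluvial soil held under 0.1–0.5 cm standing water and grown 14 days in a greenhouse at 25–30 °C. An emulsifiable formulation, water-diluted to the set dose, was then sprayed onto the foliage, and effects were scored three weeks later using previously defined criteria.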

SMILES	herbicidal effect on H: barnyard grass
CCCC(=O)Oc1c(C)nn(C)c(=O)c1-c1c(-c2ccc(F)cc2OCC)sc2cc(F)ccc12 [3-012]	5 (Herbicidal rate of 90% or more (almost completely withered))

These molecules were tested on Chinese sprangletop (assay: Test Example 3: herbicidal effect by foliage application, Wagner pot (Table 18, symbol D)). Details: amount of applied herbicide 320 g/ha.
Format: in vivo, chinese sprangletop (Leptochloa chinensis)
Outline: as §1

SMILES	herbicidal effect on D: Chinese sprangletop
CCCC(=O)Oc1c(C)nn(C)c(=O)c1-c1c(-c2ccc(F)cc2OCC)sc2cc(F)ccc12 [3-012]	2 (Herbicidal rate of 20% or more and less than 40%)

These molecules were tested on southern crabgrass (assay: Test Example 4: herbicidal effect by soil treatment (Table 19, symbol F)). Details: amount of applied herbicide 320 g/ha.
Format: in vivo, southern crabgrass (Digitaria ciliaris)
Outline: (§2)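 Herbicidal effect was rated 3 weeks after treatment, using the scoring criteria of an earlier test. The compound, formulated as an emulsion and diluted in water to a set herbicide amount, had been sprayed uniformly on soil over freshly sown seeds. Growth took place in a greenhouse at 25° C. to 30° C.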

SMILES	herbicidal effect, F: southern crabgrass
CCCC(=O)Oc1c(C)nn(C)c(=O)c1-c1c(-c2ccc(F)cc2OCC)sc2cc(F)ccc12 [3-012]	3 (Herbicidal rate of 40% or more and less than 70%)

The molecules below were run on green foxtail (assay: Test Example 4: herbicidal effect by soil treatment (Table 19, symbol G)). Details: amount of applied herbicide 320 g/ha.
Format: in vivo, green foxtail (Setaria viridis)
Outline: as §2

SMILES	herbicidal effect, G: green foxtail
CCCC(=O)Oc1c(C)nn(C)c(=O)c1-c1c(-c2ccc(F)cc2OCC)sc2cc(F)ccc12 [3-012]	3 (Herbicidal rate of 40% or more and less than 70%)

The molecules below were run on barnyard grass (assay: Test Example 4: herbicidal effect by soil treatment (Table 19, symbol H)). Details: amount of applied herbicide 320 g/ha.
Format: in vivo, barnyard grass (Echinochloa crus-galli)
Outline: as §2

SMILES	herbicidal effect, H: barnyard grass
CCCC(=O)Oc1c(C)nn(C)c(=O)c1-c1c(-c2ccc(F)cc2OCC)sc2cc(F)ccc12 [3-012]	3 (Herbicidal rate of 40% or more and less than 70%)

The molecules below were run on blackgrass (assay: Test Example 4: herbicidal effect by soil treatment (Table 19, symbol J)). Details: amount of applied herbicide 320 g/ha.
Format: in vivo, blackgrass (Alopecurus myosuroides)
Outline: as §2

SMILES	herbicidal effect, J: blackgrass
CCCC(=O)Oc1c(C)nn(C)c(=O)c1-c1c(-c2ccc(F)cc2OCC)sc2cc(F)ccc12 [3-012]	4 (Herbicidal rate of 70% or more and less than 90%)

These molecules were tested on windgrass (assay: Test Example 4: herbicidal effect by soil treatment (Table 19, symbol L)). Details: amount of applied herbicide 320 g/ha.
Format: in vivo, windgrass (Apera spica-venti)
Outline: as §2

SMILES	herbicidal effect, L: windgrass
CCCC(=O)Oc1c(C)nn(C)c(=O)c1-c1c(-c2ccc(F)cc2OCC)sc2cc(F)ccc12 [3-012]	5 (Herbicidal rate of 90% or more (almost completely withered))

Each molecule was assayed on redroot pigweed (assay: Test Example 4: herbicidal effect by soil treatment (Table 19, symbol N)). Details: amount of applied herbicide 320 g/ha.
Format: in vivo, redroot pigweed (Amaranthus retroflexus)
Outline: as §2

SMILES	herbicidal effect, N: redroot pigweed
CCCC(=O)Oc1c(C)nn(C)c(=O)c1-c1c(-c2ccc(F)cc2OCC)sc2cc(F)ccc12 [3-012]	4 (Herbicidal rate of 70% or more and less than 90%)

These molecules were tested on chickweed (assay: Test Example 4: herbicidal effect by soil treatment (Table 19, symbol P)). Details: amount of applied herbicide 320 g/ha.
Format: in vivo, common chickweed (Stellaria media)
Outline: as §2

SMILES	herbicidal effect, P: chickweed
CCCC(=O)Oc1c(C)nn(C)c(=O)c1-c1c(-c2ccc(F)cc2OCC)sc2cc(F)ccc12 [3-012]	4 (Herbicidal rate of 70% or more and less than 90%)

What follows are molecules tested on southern crabgrass (assay: Test Example 5: herbicidal effect by foliage application, plastic box (Table 20, symbol F)). Details: foliage application, 320 g/ha, three weeks after application.
Format: in vivo, southern crabgrass (Digitaria ciliaris)
Outline: (§3)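 Foliar spray test: emulsion formulation diluted in water to a set application rate, sprayed onto 14-day-old plants raised in diluvial soil at 25° C to 30° C under glass. Both herbicidal effect and crop effect rated visually three weeks later.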

SMILES	F: southern crabgrass, herbicidal effect grade
CCCC(=O)Oc1c(C)nn(C)c(=O)c1-c1c(-c2ccc(F)cc2OCC)sc2cc(F)ccc12 [3-012]	5 (Herbicidal rate of 90% or more (almost completely withered))

Each molecule was assayed on green foxtail (assay: Test Example 5: herbicidal effect by foliage application, plastic box (Table 20, symbol G)). Details: foliage application, 320 g/ha, three weeks after application.
Format: in vivo, green foxtail (Setaria viridis)
Outline: as §3

SMILES	G: green foxtail, herbicidal effect grade
CCCC(=O)Oc1c(C)nn(C)c(=O)c1-c1c(-c2ccc(F)cc2OCC)sc2cc(F)ccc12 [3-012]	4 (Herbicidal rate of 70% or more and less than 90%)

What follows are molecules tested on blackgrass (assay: Test Example 5: herbicidal effect by foliage application, plastic box (Table 20, symbol J)). Details: foliage application, 320 g/ha, three weeks after application.
Format: in vivo, blackgrass (Alopecurus myosuroides)
Outline: as §3

SMILES	J: blackgrass, herbicidal effect grade
CCCC(=O)Oc1c(C)nn(C)c(=O)c1-c1c(-c2ccc(F)cc2OCC)sc2cc(F)ccc12 [3-012]	5 (Herbicidal rate of 90% or more (almost completely withered))

Each molecule was assayed on redroot pigweed (assay: Test Example 5: herbicidal effect by foliage application, plastic box (Table 20, symbol N)). Details: foliage application, 320 g/ha, three weeks after application.
Format: in vivo, redroot pigweed (Amaranthus retroflexus)
Outline: as §3

SMILES	N: redroot pigweed, herbicidal effect grade
CCCC(=O)Oc1c(C)nn(C)c(=O)c1-c1c(-c2ccc(F)cc2OCC)sc2cc(F)ccc12 [3-012]	5 (Herbicidal rate of 90% or more (almost completely withered))

Each molecule was assayed on false cleavers (assay: Test Example 5: herbicidal effect by foliage application, plastic box (Table 20, symbol Q)). Details: foliage application, 320 g/ha, three weeks after application.
Format: in vivo, false cleavers (Galium spurium)
Outline: as §3

SMILES	Q: false cleavers, herbicidal effect grade
CCCC(=O)Oc1c(C)nn(C)c(=O)c1-c1c(-c2ccc(F)cc2OCC)sc2cc(F)ccc12 [3-012]	5 (Herbicidal rate of 90% or more (almost completely withered))

The molecules below were run on persian speedwell (assay: Test Example 5: herbicidal effect by foliage application, plastic box (Table 20, symbol R)). Details: foliage application, 320 g/ha, three weeks after application.
Format: in vivo, Persian speedwell (Veronica persica)
Outline: as §3

SMILES	R: persian speedwell, herbicidal effect grade
CCCC(=O)Oc1c(C)nn(C)c(=O)c1-c1c(-c2ccc(F)cc2OCC)sc2cc(F)ccc12 [3-012]	5 (Herbicidal rate of 90% or more (almost completely withered))
